Data on one molecule can be found in article PMC6116579, “Catalytic and Structural Characterization of a Browning-Related Protein in Oriental Sweet Melon (Cucumis Melo var. Makuwa Makino)” (Frontiers in Chemistry, 2018).

One may read the Km as the concentration of substrate that gives half-maximal velocity.

The test has as its target T1, BRP (browning-related protein with PPO activity; matched to endochitinase MCHT-2) (Cucumis melo, UniProt Q9AVA8).
T1 construct: native, partially purified from fruit (ammonium sulfate, DEAE Sepharose, Sephacryl S200); about 18 kDa SDS-PAGE, 37 kDa native PAGE, homodimer
T1 sequence (Q9AVA8 21-311): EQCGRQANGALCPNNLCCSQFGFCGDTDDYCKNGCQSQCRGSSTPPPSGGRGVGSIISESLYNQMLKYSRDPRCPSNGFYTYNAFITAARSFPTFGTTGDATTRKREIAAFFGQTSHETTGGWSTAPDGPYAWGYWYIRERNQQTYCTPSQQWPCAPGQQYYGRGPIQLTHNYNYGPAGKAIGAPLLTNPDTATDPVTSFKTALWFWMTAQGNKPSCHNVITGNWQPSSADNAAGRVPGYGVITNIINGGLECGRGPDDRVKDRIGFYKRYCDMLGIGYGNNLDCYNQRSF
Kind of test: absorbance at […] nm, Lineweaver-Burk. Type of test: biochemical. Conditions: oxidation by air oxygen; 0.05 M Tris-HCl pH 7.0, 25 °C.

Turning to `Oc1cccc(O)c1O` [Pyrogallol], the Km worked out at 42.8 mM.
